Values of other authors as cited in patent US8133870B2, “Therapeutic furopyrimidines and thienopyrimidines” (BioCryst Pharmaceuticals, Inc., priority 2004, dated 2012).

Test system: HCV

NC(=O)c1ncn([C@@H]2O[C@H](CO)[C@@H](O)[C@H]2O)n1 [Ribavirin, 1-β-D-ribofuranosyl-1-1,2,4-triazole-3-carboxamide]
toxicity (ribavirin): significant toxicity
patients in whom serum amino transferase levels are reduced to normal (ribavirin alone, patients): 40%
serum levels of HCV-RNA (ribavirin alone, patients): does not lower serum levels of HCV-RNA
